Results as given in PubChem BioAssay AID2060361 (Molecular Pharmacology Branch, DTP, NCI, 2025).
Where “and” joins values, the source holds several entries; their conditions need not be identical. Equal entries are not always repeated.

Test system: 463943-066-T-J2-PDC tumor spheroids with HUVEC/MSC, viability
Assay: Anticancer human tumor 463943-066-T-J2-PDC patient-derived colon adenocarcinoma cell line growth inhibition [TAK]
Conditions: for viability, T/C: stronger effect = lower value
Source text: Combinatorial screen of targeted agents with TAK-243 and ipatasertib in multi-cell type tumor spheroids
A high-throughput screen of multi-cell type tumor spheroids was designed to identify active combinations of targeted small molecules and TAK-243 or ipatasertib. Complex spheroids include a stromal component modeled by human endothelial cells (HUVEC) and fibroblasts modeled by human mesenchymal stem cells (MSCs). The concentration ranges selected for each drug and investigational agent were based upon clinically achievable concentrations if the clinical Cmax of the agent was known.
Compounds. The drugs and investigational agents: TAK-243 (785004), ipatasertib (767898), everolimus (733504), selumetinib (741078), bortezomib (756655), trametinib (758246), ixazomib (758254), vemurafenib (761431), dabrafenib (764134), sapanisertib (764658), alpelisib (765974), and copanlisib (816437), were obtained from the National Cancer Institute (NCI) Developmental Therapeutics Program Chemical Repository. The FDA-approved anticancer drug set is available from the NCI Developmental Therapeutics Program. […] The stock solutions were prepared in dimethyl sulfoxide (DMSO, Sigma-Aldrich, St. Louis, MO, cat. D2650) at 800-fold the tested concentration and stored at -70 degrees C prior to their use. All drugs and investigational agents were tested over a range starting from a high concentration at or near the clinical Cmax and decreasing in half-log increments. If the clinical Cmax for an agent had not been determined, the highest concentration tested was 10 microM.
NCI60 Cell Culture. NCI60 cell lines were obtained from the NCI Developmental Therapeutics Program Tumor Repository. For each lot of cells, the Repository performed Applied Biosystems AmpFLSTR Identifiler testing with PCR amplification to confirm consistency with the published Identifier STR profile for each cell line. Cells were kept in continuous culture for no more than 20 passages. The optimal seeding densities for each of the cell lines at each time point assessed were determined prior to performing the concentration response studies. Briefly, the NCI60 human tumor lines were grown as monolayers in RPMI 1640 medium supplemented with 10% FBS and 2 mmol/L L-glutamine.
An additional 2 lines were from the NCI60 cell line panel including melanomas, MALME-3M and SK-MEL-2. Pooled donor human umbilical vein endothelial cells (HUVEC, Lonza, cat. CC-2519) and human mesenchymal stem cells (hMSC, Lonza, cat. PT-2501) were purchased from Lonza (Walkersville, MD).
PDMR cell lines were grown in complete medium (DC medium): Dulbecco's modified Eagle's medium (DMEM)/F12 supplemented with 5% fetal bovine serum (FBS), 2 mM L-glutamine, 100 U/mL penicillin and 100 µg/ml streptomycin, 0.4 µg/ml hydrocortisone, 10 ng/ml epidermal growth factor (EGF) recombinant human protein, 24 µg/mL adenine, and 0.1 mg/mL primocin. During culture from frozen stock vials, PDMR cells were cultured in the same medium containing 10 µM Y-27632 (see Table 3). The PDCs were cultured in complete DMEM/F12 media without 10 microM Y-27632 dihydrochloride for at least two passages prior to the screen. The pooled donor HUVEC and hMSC were cultured in endothelial cell growth medium 2 (PromoCell, Heidelberg, Germany, cat. C-22011) and mesenchymal stem cell growth medium 2 (PromoCell, cat. C-28009), respectively. For all experiments, HUVEC and hMSC were used at passages </=5.
For the pre-screen, cell seeding densities were determined from a titration spanning the range from 5,000 to 313 cells per well. The mct-spheroids including 60% malignant cells, 25% HUVEC and 15% MSC dispensed as a mixture into U-bottom Ultra-Low Attachment 384-well plates (Corning, NY)
High-throughput Drug Combination Screening.
Prior to their inoculation into 384-well plates, malignant cells, HUVEC, and hMSC were removed from T flasks using TrypLE express (Thermo Fisher Scientific, cat. 12605036) and harvested by centrifugation for 5 min at 233 x g. […]

[1] = curve of first compound, second compound 0.3 µM
[2] = curve of first compound, second compound 0.949 µM
[3] = curve of first compound, second compound 3 µM
[4] = curve of first compound, second compound 9.49 µM
[5] = curve of first compound, second compound 30 µM
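Note: spheroids exposed to drugs for seven days.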
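Throughout, for viability, T/C: 100% = DMSO vehicle control wells.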

SMILES: Cn1cnc2c(F)c(Nc3ccc(Br)cc3Cl)c(C(=O)NOCCO)cc21 + CC(C)NCC(C(=O)N1CCN(c2ncnc3c2C(C)CC3O)CC1)c1ccc(Cl)cc1
- IC50 [1]: > 3000 nM
- IC50 [2]: > 3000 nM
- IC50 [3]: > 3000 nM
- IC50 [4]: > 3000 nM
- IC50 [5]: > 3000 nM
- viability, T/C (second compound 0.3 µM, first compound 0.00949 µM): 102%
- viability, T/C (second compound 0.3 µM, first compound 0.03 µM): 115%
- viability, T/C (second compound 0.3 µM, first compound 0.0949 µM): 92.8%
- viability, T/C (second compound 0.3 µM, first compound 0.3 µM): 78%
- viability, T/C (second compound 0.3 µM, first compound 0.949 µM): 72.6%
- viability, T/C (second compound 0.3 µM, first compound 3 µM): 54.6%
- viability, T/C (second compound 0.949 µM, first compound 0.00949 µM): 101%
- viability, T/C (second compound 0.949 µM, first compound 0.03 µM): 105%
- viability, T/C (second compound 0.949 µM, first compound 0.0949 µM): 77.6%
- viability, T/C (second compound 0.949 µM, first compound 0.3 µM): 69.2%
- viability, T/C (second compound 0.949 µM, first compound 0.949 µM): 63.9%
- viability, T/C (second compound 0.949 µM, first compound 3 µM): 62.3%
- viability, T/C (second compound 3 µM, first compound 0.00949 µM): 90.4%
- viability, T/C (second compound 3 µM, first compound 0.03 µM): 103%
- viability, T/C (second compound 3 µM, first compound 0.0949 µM): 85.2%
- viability, T/C (second compound 3 µM, first compound 0.3 µM): 76.2%
- viability, T/C (second compound 3 µM, first compound 0.949 µM): 70.3%
- viability, T/C (second compound 3 µM, first compound 3 µM): 58.4%
- viability, T/C (second compound 9.49 µM, first compound 0.00949 µM): 102%
- viability, T/C (second compound 9.49 µM, first compound 0.03 µM): 94.6%
- viability, T/C (second compound 9.49 µM, first compound 0.0949 µM): 88.5%
- viability, T/C (second compound 9.49 µM, first compound 0.3 µM): 79.8%
- viability, T/C (second compound 9.49 µM, first compound 0.949 µM): 70.2%
- viability, T/C (second compound 9.49 µM, first compound 3 µM): 67.1%
- viability, T/C (second compound 30 µM, first compound 0.00949 µM): 103%
- viability, T/C (second compound 30 µM, first compound 0.03 µM): 92.2%
- viability, T/C (second compound 30 µM, first compound 0.0949 µM): 88.6%
- viability, T/C (second compound 30 µM, first compound 0.3 µM): 71.7%
- viability, T/C (second compound 30 µM, first compound 0.949 µM): 71.3%
- viability, T/C (second compound 30 µM, first compound 3 µM): 60.1%

SMILES: Cn1cnc2c(F)c(Nc3ccc(Br)cc3Cl)c(C(=O)NOCCO)cc21
- viability, T/C (compound 0.00949 µM): 101% and 106%
- viability, T/C (compound 0.03 µM): 99.1% and 108%
- viability, T/C (compound 0.0949 µM): 77.1% and 84%
- viability, T/C (compound 0.3 µM): 85.9% and 76%
- viability, T/C (compound 0.949 µM): 64.1% and 78.2%
- viability, T/C (compound 3 µM): 62.4% and 57.4%
- IC50 (curve of compound): > 3000 nM

SMILES: CC(C)CC(NC(=O)C(Cc1ccccc1)NC(=O)c1cnccn1)B(O)O (centres undefined)
- viability, T/C (compound 31.6 pM): 106% and 127%
- viability, T/C (compound 0.0001 µM): 109% and 112%
- viability, T/C (compound 0.000316 µM): 97.4% and 97.8%
- viability, T/C (compound 0.001 µM): 87.7% and 98.7%
- viability, T/C (compound 0.00316 µM): 90.2% and 85.5%
- viability, T/C (compound 0.01 µM): 70.7% and 80.7%
- IC50 (curve of compound): > 10 nM

SMILES: CC(C)CC(NC(=O)C(Cc1ccccc1)NC(=O)c1cnccn1)B(O)O (centres undefined) + CC(C)NCC(C(=O)N1CCN(c2ncnc3c2C(C)CC3O)CC1)c1ccc(Cl)cc1
- IC50 [1]: > 10 nM
- IC50 [2]: > 10 nM
- IC50 [3]: > 10 nM
- IC50 [4]: > 10 nM
- IC50 [5]: > 10 nM
- viability, T/C (second compound 0.3 µM, first compound 31.6 pM): 98.3%
- viability, T/C (second compound 0.3 µM, first compound 0.0001 µM): 99.2%
- viability, T/C (second compound 0.3 µM, first compound 0.000316 µM): 92.3%
- viability, T/C (second compound 0.3 µM, first compound 0.001 µM): 91.4%
- viability, T/C (second compound 0.3 µM, first compound 0.00316 µM): 93.1%
- viability, T/C (second compound 0.3 µM, first compound 0.01 µM): 84.1%
- viability, T/C (second compound 0.949 µM, first compound 31.6 pM): 89.1%
- viability, T/C (second compound 0.949 µM, first compound 0.0001 µM): 81.8%
- viability, T/C (second compound 0.949 µM, first compound 0.000316 µM): 89.4%
- viability, T/C (second compound 0.949 µM, first compound 0.001 µM): 84.3%
- viability, T/C (second compound 0.949 µM, first compound 0.00316 µM): 85.2%
- viability, T/C (second compound 0.949 µM, first compound 0.01 µM): 77.3%
- viability, T/C (second compound 3 µM, first compound 31.6 pM): 90.5%
- viability, T/C (second compound 3 µM, first compound 0.0001 µM): 96%
- viability, T/C (second compound 3 µM, first compound 0.000316 µM): 97.3%
- viability, T/C (second compound 3 µM, first compound 0.001 µM): 94.4%
- viability, T/C (second compound 3 µM, first compound 0.00316 µM): 78.5%
- viability, T/C (second compound 3 µM, first compound 0.01 µM): 81.8%
- viability, T/C (second compound 9.49 µM, first compound 31.6 pM): 85.4%
- viability, T/C (second compound 9.49 µM, first compound 0.0001 µM): 95.5%
- viability, T/C (second compound 9.49 µM, first compound 0.000316 µM): 82.7%
- viability, T/C (second compound 9.49 µM, first compound 0.001 µM): 88.9%
- viability, T/C (second compound 9.49 µM, first compound 0.00316 µM): 82.7%
- viability, T/C (second compound 9.49 µM, first compound 0.01 µM): 77%
- viability, T/C (second compound 30 µM, first compound 31.6 pM): 88.2%
- viability, T/C (second compound 30 µM, first compound 0.0001 µM): 85.3%
- viability, T/C (second compound 30 µM, first compound 0.000316 µM): 91.4%
- viability, T/C (second compound 30 µM, first compound 0.001 µM): 88.2%
- viability, T/C (second compound 30 µM, first compound 0.00316 µM): 88.7%
- viability, T/C (second compound 30 µM, first compound 0.01 µM): 70.2%
